The source of these data is patent US20200323962A1, “LIPOPHILIC PEPTIDE PRODRUGS” (YISSUM RESEARCH DEVELOPMENT COMPANY OF THE HEBREW …, priority 2017, published 2020).

The structures appear in SMILES notation. Read-outs that look alike come from different tables or passages of the source.

The conditions of data set [1]: for Papp A→B: Caco-2, Papp (AB); for Papp B→A: Caco-2, Papp (BA).
For data set [2] the following is noted: pH 7.4, LogD, pH 7.4 (mean / reported value).
Method: (§1) Log D. Determination of distribution coefficients were performed as follows:
(§2) Incubations were carried out in Eppendorf-type polypropylene microtubes in triplicates. […] Phase separation was assured by centrifugation for 2 min at 6000 rpm. The octanol phase was diluted 100-fold with 40% acetonitrile, and aqueous phase was analyzed without dilution. The samples (both phases) were analyzed using HPLC system coupled with tandem mass spectrometer.
The subject of data set [3] is Caco-2 cells.
The conditions of data set [4]: PAMPA, pH 7.4. Background: The PAMPA barrier holds no transporters, so it reflects passive diffusion.
From the text: (§3) The Parallel Artificial Membrane Permeability Assay (PAMPA) is used as an in vitro model of passive, transcellular permeation. […] This assay also allows evaluation of permeability over a large pH range, which is valuable for a preliminary understanding of how orally delivered compounds might be absorbed across the entire gastrointestinal tract. […] Depending upon the types of lipids used and other experimental conditions, PAMPA may be designed to model absorption in gastrointestinal tract (PAMPA-GIT), blood-brain barrier penetration (PAMPA-BBB) or skin penetration (Skin PAMPA). All steps of the PAMPA were carried out according to pION Inc. PAMPA Explorer™ Manual. The main principle of the assay is the incubation of compound in donor chamber (a well in Donor Plate) with aqueous buffer, which is separated from acceptor chamber (a well in Acceptor Plate) with another buffer by a phospholipid or hydrocarbon membrane fixed on a filter support. After the test, concentrations in the corresponding donor and acceptor wells are measured and permeability is calculated. GIT model was simulated using GIT-0 phospholipid mix. […] All compounds were tested in triplicates. Prisma HT buffer (pH 7.4) containing 50 μM test compounds and 0.5% DMSO were added into the Donor Plate wells. Acceptor Sink buffer was added into each well of the acceptor plate. Incubation was done at room temperature for 4 hours without stirring. […] Compounds with low UV-Vis signal were detected by LC-MS/MS method. Then the apparent permeability coefficient was calculated.
A short description of a further data set: in vitro. Particulars: human; for efflux ratio at 90 min, 10 µM: Caco-2, pH 7.4, Net efflux (quotient of Papp (BA) to Papp (AB)); for Papp A→B at 90 min, 10 μM: Caco-2, pH 7.4, Papp (AB); for Papp B→A at 90 min, 10 μM: Caco-2, pH 7.4, Papp (BA). A general note: Caco-2 cells form a polarised layer with tight junctions and transporters.
The next data set has as its system P-gp. The data set is described as follows: in vitro. The settings on record: human, Caco-2, pH 7.4, Net efflux in the presence of Verapamil.
A further data set in a line: PAMPA-GIT permeability. Particulars: pH 7.4, 4 hours.
The subject of data set [5] is Caco-2 cells. Nature of the data set: Caco-2 permeability study (Examples 1-4).
Method: The culture growth medium consisted of DMEM supplemented with 10% heat-inactivated FBS, 1% MEM-NEAA, 2 mM 1-glutamine, 1 mM sodium pyruvate, 50,000 units Penicillin G Sodium and 50 mg Streptomycin Sulfate (Biological Industries). The medium was replaced every other day.
Cells (passage 55-60) were seeded at density of 25×10^5 cells/cm^2 on untreated culture inserts of polycarbonate membrane with 0.4 μm pores and surface area of 1.1 cm^2. Culture inserts containing Caco-2 monolayer were placed in 12 mm transwell plates (Corning). Culture medium was replaced every other day. Transepithelial Electrical Resistance (TEER) values were measured by Millicell ERS-2 System (Millipore) a week after seeding up to experiment day (21-23 days) to ensure proliferation and differentiation of the cells. When the cells were fully differentiated and TEER values became stable (200-500 Ω·cm^2). The TEER values were compared to control inserts containing only the medium.
The experiment was initiated by replacing the medium from both sides by apical (600 μl) and basolateral (1500 μl) buffers, both warmed to 37° C. The Cells were incubated with the buffers solutions for 30 min at 37° C. on a shaker (100 cycles/min). […] 50 μl samples were taken from the apical side immediately at the beginning of the experiment, resulting in 550 μl apical volume during the experiment.
Permeability Coefficient (Papp) for each compound was calculated from the linear plot of drug accumulated versus time, using the following equation:
Where dq/dt is steady state appearance rate of the compound on the receiver side, C0 is the initial concentration of the drug on the donor side, and A is the exposed tissue surface area (1.1 cm^2).
Transport studies were performed through the Caco-2 monolayer mounted in an Ussing-type chamber set-up with continuous trans-epithelial electrical resistance (TEER) measurements to assure TEER between 800 and 1200 Ω*cm^2. HBSS supplemented with 10 mM IVIES and adjusted to pH 6.5 were used as transport medium in the donor compartment and pH 7.4 in the acceptor compartment. The donor solution contained the test compound.
Permeability mechanism of compounds is studied by evaluating the Papp of a compound from the apical to the basolateral (A-to-B) membrane and its Papp from the basolateral to the apical membrane (B-to-A). The A-to-B assay simulates passive and transporter-mediated permeability. The B-to-A assay is essential complementary experiment indicative of the activity of P-gp. The ratio of the A-to-B and B-to A Papps (efflux ratio) is calculated to determine the permeability mechanism.
The nature of data set [6]: Log D determination (octanol/PBS pH 7.4). The settings on record: pH 7.4, octanol/PBS.
Method: as §1, §2
Data set [7] can be described thus: Caco-2 A-B and B-A permeability with/without verapamil (Example 6). The settings on record: human, Caco-2, pH 7.4.
The test system of data set [8] is Caco-2 cells. Described as above. Particulars: 10 μM, 90 min, no verapamil.

From the text for PAMPA-GIT permeability: as §3

In the case of `C[C@@H]1NC(=O)[C@H](C)NC(=O)[C@@H](C)N(C)C(=O)[C@H](C)N(C)C(=O)[C@H](C)NC(=O)[C@H](C)NC1=O` [1,6CHA, *aAAAA*A], in data set [1] (Mean), the Papp A→B stood at 0.1 ×10⁻⁶ cm/s and the Papp B→A is 0.1 ×10⁻⁶ cm/s. In data set [1] (replicate 2), this compound came in with a Papp A→B of 0.1 ×10⁻⁶ cm/s and a Papp B→A of 0.1 ×10⁻⁶ cm/s. In data set [1] (replicate 3), this compound showed a Papp A→B of 0.1 ×10⁻⁶ cm/s and a Papp B→A of 0.2 ×10⁻⁶ cm/s. In data set [1] (replicate 1), this compound returned a Papp B→A of 0.1 ×10⁻⁶ cm/s. Besides, the logD in data set [2] is -0.97. The “Papp (AB), replicate 1” value with Caco-2 cells [3] is listed as 0.0 10^−6 cm/s. For the same compound, in data set [4], the Mass retention is 27%; the “Permeability, Mean” value was below −7 Log10[10^−6 cm/s]; the “Permeability, replicate 1” value was below −7 Log10[10^−6 cm/s]; the “Permeability, replicate 2” value was below −7 Log10[10^−6 cm/s]. Further, the “Permeability, replicate 3” value in data set [4] was below −7 Log10[10^−6 cm/s]. Further, the efflux ratio at 90 min, 10 µM in “in vitro” was determined as 1.1.

`C[C@H]1O[C@@H](O[C@H]2[C@@H](O)C[C@H](O[C@H]3[C@@H](O)C[C@H](O[C@H]4CC[C@@]5(C)[C@H](CC[C@@H]6[C@@H]5C[C@@H](O)[C@]5(C)[C@@H](C7=CC(=O)OC7)CC[C@]65O)C4)O[C@@H]3C)O[C@@H]2C)C[C@H](O)[C@@H]1O` [Digoxin]: the efflux ratio at 90 min, 10 µM in “in vitro” turned out to be 28.6; with P-gp, 1.5. Besides, the values for the Papp A→B at 90 min, 10 μM in the data set “in vitro” (Mean), in the data set “in vitro” (replicate 1) and in “in vitro” (replicate 3) were 0.4 ×10⁻⁶ cm/s, 0.4 ×10⁻⁶ cm/s and 0.5 ×10⁻⁶ cm/s, respectively. Further, the Papp B→A at 90 min, 10 μM in the data set “in vitro” (Mean) was 12 ×10⁻⁶ cm/s; in “in vitro” (replicate 1) it was 9.4 ×10⁻⁶ cm/s; in “in vitro” (replicate 2) it was 12 ×10⁻⁶ cm/s; in “in vitro” (replicate 3), 14.7 ×10⁻⁶ cm/s.

In the case of `CC(C)[C@@H]1C(=O)N[C@@H](CCCNC(=N)N)C(=O)NCC(=O)N[C@@H](CC(=O)O)C(=O)N[C@@H](C)C(=O)N(C)[C@@H](C)C(=O)N1C` [peptide 29, c(*vRGDA*A)], in “PAMPA-GIT permeability”, the Mass retention is on record as 15%; the “Permeability, Mean” value was below −7 Log10[10^−6 cm/s]; the “Permeability, replicate 1” value is below −7 Log10[10^−6 cm/s]; the “Permeability, replicate 2” value is below −7 Log10[10^−6 cm/s]. Moreover, the “Permeability, replicate 3” value in the data set “PAMPA-GIT permeability” is below −7 Log10[10^−6 cm/s]. Also, the efflux ratio in the data set with Caco-2 cells [5] (Table 3) was 2.14. Further, in the data set on Caco-2 cells [5] (Table 3, n = 3), the “Papp AB” value came out at 0.07 ± 0.01 cm/s × 10^6 and the “Papp BA” value was 0.15 ± 0.01 cm/s × 10^6. Further, the “Caco-2 permeability” value with Caco-2 cells [5] (qualitative) is on record as “significant lower permeability”. Also, the logD in [6] (pH 7.4, LogD, pH 7.4 (mean in parentheses below reported bound)) was -2.84. In addition, the “LogD, pH 7.4 (mean / reported value)” value in data set [6] is below −1. The efflux ratio at 90 min, 10 µM in [7] came out at 0.4. In the data set on Caco-2 cells [8], the “Papp (AB), Mean” value was 0.7 10^−6 cm/s; the “Papp (AB), replicate 1” value is reported as 1.0 10^−6 cm/s; the “Papp (AB), replicate 2” value is given as 0.2 10^−6 cm/s; the “Papp (AB), replicate 3” value is listed as 0.9 10^−6 cm/s. In addition, in the data set with Caco-2 cells [8], the “Papp (BA), Mean” value is 0.3 10^−6 cm/s; the “Papp (BA), replicate 1” value is 0.3 10^−6 cm/s; the “Papp (BA), replicate 2” value was 0.4 10^−6 cm/s; the “Papp (BA), replicate 3” value is given as 0.2 10^−6 cm/s.

A word on the Papp A→B: it is the apparent permeability from the apical to the basolateral side of a cell layer. One may read the Papp B→A as how fast a substance crosses the layer from the basolateral side. The term logD denotes the decadic logarithm of the distribution of all forms, ionised or not, between an organic phase and buffer at a given pH. In general, efflux ratio refers to the permeability from basolateral to apical divided by that in the opposite direction, in the common usage.
